In patent publication US12208107B2, “Method and compositions for the treatment of anemia through the inhibition of furin” (Brigham Young University, priority 2016, dated 2025):
“Also recorded” adds a separate entry of the source.

What was measured:
Recombinant human furin = molecular target: T1, Recombinant human furin (Homo sapiens, UniProt P09958); experiment: In vitro fluorogenic furin activity assay; type: biochemical; details: for inhibition of furin activity in the drug screen: fluorogenic substrate BOC-Arg-Val-Arg-Arg-AMC, FIG. 9 / FIG. 22; for fluorescence (furin activity): single drug at 110 and 220 μM, 50-minute time course
T1 construct: purchased New England BioLabs (Ipswich, MA)
T1 sequence (P09958 108-794): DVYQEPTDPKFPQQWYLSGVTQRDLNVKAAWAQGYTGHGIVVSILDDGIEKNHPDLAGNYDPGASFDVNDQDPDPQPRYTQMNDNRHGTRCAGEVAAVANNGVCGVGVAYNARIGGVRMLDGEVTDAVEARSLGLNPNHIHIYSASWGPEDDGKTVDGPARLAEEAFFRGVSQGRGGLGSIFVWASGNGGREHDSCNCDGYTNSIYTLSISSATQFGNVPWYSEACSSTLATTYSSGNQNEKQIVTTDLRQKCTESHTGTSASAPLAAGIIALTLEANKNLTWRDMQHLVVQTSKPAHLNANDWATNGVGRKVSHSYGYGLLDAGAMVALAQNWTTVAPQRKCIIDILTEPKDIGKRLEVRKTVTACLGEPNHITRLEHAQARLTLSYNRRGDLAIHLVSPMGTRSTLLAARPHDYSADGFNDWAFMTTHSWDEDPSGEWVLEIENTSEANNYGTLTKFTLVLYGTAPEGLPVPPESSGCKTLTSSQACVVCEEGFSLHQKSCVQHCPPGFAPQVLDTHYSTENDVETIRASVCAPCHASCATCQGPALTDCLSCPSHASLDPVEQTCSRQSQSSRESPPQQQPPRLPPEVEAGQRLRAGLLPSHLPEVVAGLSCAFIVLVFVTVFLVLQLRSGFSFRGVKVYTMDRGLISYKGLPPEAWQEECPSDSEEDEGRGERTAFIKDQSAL
Procedure: Recombinant human furin was purchased from New England BioLabs (Ipswich, MA). Fluorogenic furin convertase substrate BOC-Arg-Val-Arg-Arg-AMC (AMC=7-Amino-4-methylcoumarin) from Enzo Life Sciences (Farmingdale, NY) and HIV aspartyl protease inhibitors (Sigma) were dissolved in DMSO. Protease inhibitory′ drugs were prepared at a. concentration of 10 mg/mL and stored at room temperature. Furin Inhibitor II chloromethylketone was purchased from EMD Millipore (Darmstadt, Germany).
The assay was performed at pH 7.5 in buffer 50 mM HEPES, 1 mM CaCl2, 1 mM β-mercaptoethanol, 0.2 mg/mL BSA. In a total volume of 100 μL, the final concentration per well of substrate enzyme was 10 μM and 1 U/well respectively. All assays were performed at 37° C. in a 96-well fluorometer (BioTek Synergy H4 Hybrid reader) with an excitation wavelength of 345 nm and an emission wavelength of 420 nm.
Inhibitory small molecules were incubated with enzyme for 1 hour at 37° C. prior to addition of substrate to initiate the reaction. All assays were performed in triplicate. Inhibition constants were calculated based on methods previously described (Lineweaver, H. & Burk, D. The Determination of Enzyme Dissociation Constants. J. Am. Chem. Soc. 56, 658-666 (1934)). […]
The molecular docking studies predicted that PIs bind to the catalytic site of furin as well as to a putative allosteric site on furin (FIGS. 7A and 7B). A fluorescence assay was used to monitor furin activity. Furin has substrate specificity for the multi-basic consensus amino-acid sequence of Arg-X-Lys/Arg-Arg (RXRR) at the cleavage site, where X represents a neutral, polar amino acid. Peptide substrates including the furin cleavage sequence having an attached fluorescent tag were used. A fluorescence tag is quenched when it is attached to the peptide, but when furin cleaves the peptide the fluorophore is released and is able to fluoresce. The inhibitory effect of the PIs in this assay can be characterized through a positive control, in which furin actively cleaves substrate without the presence of an inhibitor.

[1] = tested on: hepcidin-25 in Huh7 cell media; experiment: Hepcidin-25 quantification in Huh7 cell media by mass spectrometry; type: cell-based, human; details: single PI at 15 μM, IL-6 and BMP-9 10 ng/mL each, 18 hrs
Procedure: Cells were seeded at a density of 1.5×10^6 per T25 flask in 5 mL culture medium and allowed to reach 50% confluency. At time 0, the cells received fresh media and were then simultaneously treated with either nelfinavir or darunavir alone, or nelfinavir and darunavir at varying concentrations (2.5/2.5 μM, 5/5 μM and 7.5/7.5 μM) and induced with IL-6 and BMP-9 (10 ng/mL each) for 18 hours. After 18 hours, 2 mL of media were collected, aliquoted and flash frozen for mass spectrometry (MS) analysis. Control groups not being induced with cytokines, are designated as ‘Healthy’.
Detection of Hepcidin-25 isoform was completed using an HPLC-MS/MS method with an Eksigent NanoLC HPLC with a Thermo Scientific C-18 reverse-phase column coupled via Thermo Scientific Nanospray ESI soft ionization source to a Thermo Scientific LTQ/Orbitrap XL mass spectrometer (MS). Samples were prepared for MS using an in-house developed enrichment and purification protocol. […]
The mass spectrometer was tuned and calibrated to a pure human recombinant hepcidin-25 solution. […] Peaks with isotopic envelopes corresponding to [M+5H+] and [M+6H+], 651.8 m/z and 543.3 m/z for 2-iodoacetamide, 818.5 m/z and 682.2 m/z for 2-iodo-N-(phenylethyl)-acetamide respectively, were detected in all samples and were not observed in the protocol blank. […] Quantification was completed using in-house developed ion chromatogram extractor software that allowed positive isolation of unfragmented peaks by m/z and chromatographic elution windows for total spectral ion count summation. Samples were intensity normalized to hepcidin-25 detected in healthy culture media for each dataset.
Sample preparation consisted of three phases: 1) ultra-filtration to remove large abundant proteins and media debris; 2) earboxamidomethylation of cysteine residues; and 3) 2-phase extraction of lipid substituents and subsequent concentration by speed-vac. […] Data was recorded at a resolution of 100,000 over the course of a two-hour method. Detected intensities were totaled using in-house developed ion-chromatogram extractor software. […]

pSTAT3 in Huh7 cells = experiment: STAT3 phosphorylation Western blot after IL-6 induction, Huh7; type: cell-based, human; details: for inhibition of STAT3 phosphorylation (in words): 0-60 μM, IL-6 50 ng/mL
Procedure: For the STAT3 and Smad4 experiments, the cells were seeded at a density of 1.5×10^5 per flask in 5 mL of culture medium and allowed to reach 70% confluency. At time 0, the cells received fresh media and were treated with nelfinavir, ritonavir, darunavir or indinavir, at concentrations ranging from 0 to 60 μM for three hours, and then induced with IL-6 or BMP-9 (Cat, #200-06 and 120-07, PeproTech, Rocky Hill, NJ) 50 ng/mL, for 30 minutes.
After treatments, cultured cells were washed with ice-cold PBS and lysed by adding ice-cold RIP A buffer containing 50 mM Tris-HCl (pH 8), 150 mM NaCl, 1% Triton X-100, 0.5% sodium deoxycholate, 0.1% SDS, 5 mM EDTA and IX protease/phosphatase cocktail inhibitor (Thermo Fisher Scientific, Waltham, MA), Cells were scraped off the flask and were further disrupted by passing the solution through a 21 gauge needle. The extracts were then transferred to a microfuge tube and centrifuged for 20 min at 12000 rpm. Protein concentration was determined with a Lowry assay and equal amounts of the resulting protein (30 μg) were separated by 8% SDS-PAGE and then transferred to a nitrocellulose membrane (Bio-Rad).
After transfer, the membranes were blocked in Odyssey™ Blocking Buffer (927-40100, LI-COR Biosciences, Lincoln, NE) at room temperature, for 1 hour. Primary antibodies were diluted in blocking solution containing 0.2% Tween and incubated overnight at 4° C. with polyclonal antibody to ferroportin (rabbit, 1:1000 dilution; PAS-2293, Thermo Scientific, Waltham, MA), phospho-STAT3 Tyr705 and STAT3 (1:1000 dilution, (Cat. #9145 and 9139 respectively, Cell Signaling Technology, Beverly, MA). Blots were normalized by probing the membranes with either a p-actin or glucose-6-phosphate dehydrogenase polyclonal antibody (Cat. #3700 and 8866 respectively, Cell Signaling Technology, Beverly, MA). After incubation and washing with PBS-T, the membranes where incubated in the dark, in blocking solution with 0.2% Tween with IRDye 800CW Goat anti-Rabbit IgG and IRDye® 680RD Donkey anti-Mouse IgG (1:10000, LI-COR Biosciences, Lincoln, NE) for 1 hour at room temperature. The proteins were detected and visualized by fluorescence using the Odyssey Classic (LI-COR Biosciences, Lincoln, NE). Densitometry analysis of specific bands was performed with the Image Studio software.
To assess whether PIs abrogate the IL-6 signaling cascade, STATS phosphorylation (pSTAT3) was measured in the hepatocyte cell lines. PIs were incubated with both Huh7 and HepG2 cell lines for 3 hours, before the addition of IL-6 (50 ng/mL) for 30 minutes. Concentrations of PIs ranged from 0-60 μM. Following 30 minutes of IL-6 induction, cells wore immediately lysed, and proteins harvested for Western blot analysis. Untreated hepatocyte control cells are designated as healthy.

[2] = tested on: HAMP gene expression in Huh7 hepatocytes; experiment: HAMP gene expression (RT-qPCR), Huh7; type: cell-based, human; details: IL-6/BMP-9 induced Huh7, 18 hrs; ND 15 μM, CMK 25 μM
Procedure: Cells were seeded at a density of 1.5×10^6 per T25 flask in 5 mL culture medium and allowed to reach 50% confluency. At time 0, the cells received fresh media and were then simultaneously treated with either nelfinavir or darunavir alone, or nelfinavir and darunavir at varying concentrations (2.5/2.5 μM, 5/5 μM and 7.5/7.5 μM) and induced with IL-6 and BMP-9 (10 ng/mL each) for 18 hours. […] Control groups not being induced with cytokines, are designated as ‘Healthy’.
RNA was isolated by washing tissue culture in 1×PBS, before applying QIAzol lysis reagent (Cat #79306). RNA was then purified on RNeasy mini kit columns (Cat #74104) from Qiagen. All samples were treated with Qiagen DNase (Cat #79254). Two micrograms of RNA were used for reverse transcription and subsequent SYBR® Green ROX real time PCR for the genes of interest. Reverse transcription kits (Cat #330401) and SYBR Green real-time PCR master mixes (Cat #330523) were from Qiagen (Louisville, KY). […]
Real time quantitative PCR was performed on an Applied Biosciences StepOne plus instrument and analyzed with StepOne software v2.3. The relative amounts of transcripts from each gene were normalized to reference gene GAPDH and calculated as follows: ΔΔCT=the average ΔCT of sample B−the average ΔCT of sample B, and their fold difference=2−^ΔΔCT.

[3] = tested on: Female Lewis rats (PG-LPS model of ACI); experiment: PG-LPS rat model of anemia of chronic inflammation; type: in vivo; details: for serum hepcidin, lower than in PG-LPS rats / serum prohepcidin, higher than in PG-LPS rats: ELISA; for Hb (g/dL) Day 0 / Hb (g/dL) Day 62: nelfinavir with ritonavir by oral gavage
[4] = PG-LPS rats, listed as nelfinavir
[5] = Treated Control (no PG-LPS), n = 4

With `CC(C)CN(C[C@@H](O)[C@H](Cc1ccccc1)NC(=O)O[C@H]1CO[C@H]2OCC[C@H]21)S(=O)(=O)c1ccc(N)cc1` [Darunavir, [(1R, 5S, 6R)-2,8-dioxabicyclo[3.3.0]oct-6-yl] N-[(2S, 3R)-4-[(4-aminophenyl)sulfonyl-(2-methylpropyl)amino]-3-hydroxy-1-phenyl-butan-2-yl] carbamate] the “type of inhibition (Lineweaver-Burk)” value (Recombinant human furin) was “uncompetitive inhibition”, the “inhibition of furin activity in the drug screen” value (Recombinant human furin) was “three best inhibitors” and the “fluorescence (furin activity)” value (Recombinant human furin) was “decreased fluorescence”. The “production of mature secreted hepcidin” value [1] was “back to basal levels” and the “inhibition of STAT3 phosphorylation (in words)” value (shortened to “inhibition … (in words)”) (pSTAT3 in Huh7 cells) was “no signs of pSTAT3 inhibition; also recorded: did not show any statistically significant inhibition; also recorded: Neither darunavir nor indinavir inhibits STAT3 phosphorylation”.
With `CC(C)(C)NC(=O)[C@@H]1CN(Cc2cccnc2)CCN1C[C@@H](O)C[C@@H](Cc1ccccc1)C(=O)N[C@H]1c2ccccc2C[C@H]1O` [Indinavir] the “inhibition … (in words)” value (pSTAT3 in Huh7 cells) was “no signs of pSTAT3 inhibition; also recorded: did not show any statistically significant inhibition; also recorded: Neither darunavir nor indinavir inhibits STAT3 phosphorylation”.
`Cc1c(O)cccc1C(=O)N[C@@H](CSc1ccccc1)[C@H](O)CN1C[C@H]2CCCC[C@H]2C[C@H]1C(=O)NC(C)(C)C` [Nelfinavir] was tested, and the “type of inhibition (Lineweaver-Burk)” value (Recombinant human furin) was “competitive inhibition”, the “inhibition of furin activity in the drug screen” value (Recombinant human furin) was “three best inhibitors” and the “fluorescence (furin activity)” value (Recombinant human furin) was “decreased fluorescence”. The “production of mature secreted hepcidin” value [1] was “back to basal levels”, the “inhibition … (in words)” value (pSTAT3 in Huh7 cells) was “inhibiting STAT3 phosphorylation in a dose dependent manner; also recorded: concentration dependent manner; also recorded: dose dependent inhibition” and the inhibition at 5 µM (pSTAT3 in Huh7 cells; Homo sapiens, Huh-7, 5 μM, 3 hrs before IL-6 50 ng/mL 30 min) was 27%. The inhibition at 15 µM (pSTAT3 in Huh7 cells; Homo sapiens, Huh-7, 15 μM, 3 hrs before IL-6 50 ng/mL 30 min) was 46%, the HAMP gene expression [2] was “significant inhibitory effect” and the “iron in bone marrow, PG-LPS rats” value ([3]; ICP-MS) was “increased significantly”. For the same compound, the “iron in serum, PG-LPS rats” value ([3]; ICP-MS) was “increased significantly”, the “liver iron content, PG-LPS rats” value ([3]; PG-LPS PI treated group) was “dropped” and the “more serum iron than PG-LPS treated rats” value ([3]; PG-LPS rats) was roughly 25%. For the same compound, the “recovery of hemoglobin and hematocrit” value ([3]; PG-LPS rats) was “did not demonstrate a recovery”, the “serum hepcidin, lower than in PG-LPS rats” value ([3]; PG-LPS rats) was roughly 2 fold and the “serum prohepcidin, higher than in PG-LPS rats” value ([3]; PG-LPS rats) was roughly 2.5 fold. The “serum hepcidin, lower than in PG-LPS rats” value [3, 4] was “approximately 2 fold”, the “serum prohepcidin, higher than in PG-LPS rats” value [3, 4] was “approximately 2.5 fold” and the “recovery of hemoglobin and hematocrit” value [3, 4] was “did not significantly recover”. For the same compound, the increase of prohepcidin ([3]; PG-LPS rats, ritonavir co-administered) was 148%, the “inhibition of mature hepcidin production” value ([3]; PG-LPS rats, therapeutic serum concentration 4 ng/mL, ritonavir co-administered) was 47% and the “transcription of HAMP mRNA in liver” value ([3]; PG-LPS treated animals, qPCR) was “did not show any statistically significant changes”. For the same compound, the “Hb (g/dL) Day 0” value [3, 5] was 14.4 ± 0.4 g/dL, the “Hb (g/dL) Day 62” value [3, 5] was 15.2 ± 0.2 g/dL and the “HCT (%) Day 0” value ([3]; Treated Control, n = 4) was 41.5 ± 0.9%. The “HCT (%) Day 62” value ([3]; Treated Control, n = 4) was 44.6 ± 2.7%, the “MCV (fl) Day 0” value ([3]; Treated Control, n = 4) was 55.3 ± 0.7 fL and the “MCV (fl) Day 62” value ([3]; Treated Control, n = 4) was 49.7 ± 0.5 fL. The “RDW (%) Day 0” value ([3]; Treated Control, n = 4) was 12.6 ± 0.1%, the “RDW (%) Day 62” value ([3]; Treated Control, n = 4) was 37.2 ± 0.7% and the “HCT (%) Day 0” value ([3]; Treated PG-LPS, n = 7) was 41.5 ± 2.4%. The “HCT (%) Day 62” value ([3]; Treated PG-LPS, n = 7) was 37.6 ± 3.9%, the “MCV (fl) Day 0” value ([3]; Treated PG-LPS, n = 7) was 55.8 ± 1.5 fL and the “MCV (fl) Day 62” value ([3]; Treated PG-LPS, n = 7) was 46.7 ± 0.6 fL. The “RDW (%) Day 0” value ([3]; Treated PG-LPS, n = 7) was 13.6 ± 2.5%, the “RDW (%) Day 62” value ([3]; Treated PG-LPS, n = 7) was 42.8 ± 1.2% and the “Hb (g/dL) Day 0” value ([3]; Treated PG-LPS, n = 7) was 14.1 ± 1.1 g/dL. For the same compound, the “Hb (g/dL) Day 62” value ([3]; Treated PG-LPS, n = 7) was 13.0 ± 1.1 g/dL, the “liver ferroportin, PG-LPS rats (in words)” value ([3]; Western blot) was “significantly higher” and the “increase in liver ferroportin, healthy rats” value ([3]; healthy treated rats) was roughly 3 fold. The “hepcidin levels, healthy rats” value ([3]; healthy treated vs healthy) was “slightly higher”, the “liver iron content, healthy rats” value ([3]; healthy treated vs healthy) was “dropped significantly” and the “prohepcidin levels, healthy rats” value ([3]; healthy treated vs healthy) was “much higher”. The “serum iron, healthy rats” value ([3]; healthy treated vs healthy) was “not significantly different” and the “increase of ferroportin expression in animal liver” value ([3]; ritonavir co-administered) was 2.5 fold.
`CC(C)c1nc(CN(C)C(=O)N[C@H](C(=O)N[C@@H](Cc2ccccc2)C[C@H](O)[C@H](Cc2ccccc2)NC(=O)OCc2cncs2)C(C)C)cs1` [Ritonavir] was tested, and the “inhibition … (in words)” value (pSTAT3 in Huh7 cells) was “not concentration dependent”, the “inhibition … (in words)” value (pSTAT3 in Huh7 cells; listed as ritonavir) was “dose dependent inhibition” and the “inhibition of STAT3 phosphorylation” value (pSTAT3 in Huh7 cells; all concentrations tested) was roughly 25%. The “average pSTAT3 inhibition” value (pSTAT3 in Huh7 cells; doses 5-30 μM) was 27%.
